Laboratory results from patent publication US11472774B2, “Anti-cancer compounds” (The University of Sydney, priority 2018, dated 2022).

Target: T1, porcine brain tubulin (Sus scrofa, UniProt P02550+P02554)
T1 construct: purchased Cytoskeleton; host or cells: porcine brain tissue
Assay: Fluorescence-based tubulin polymerization assay
Format: biochemical
Settings: compared to control (DMSO); 37° C.; FIG. 1 and FIG. 2
Protocol: Fluorescence-based tubulin polymerization assay was conducted in a final volume of 55 μL using the Tubulin Polymerization Assay kit (Cytoskeleton, Colo., USA) as per manufacturer's instructions. Briefly, porcine brain tubulin was incubated with test compounds at 37° C. and fluorescence was measured using with Tecan M200 PRO+ microplate reader (Tecan, Switzerland) at 355 nm excitation and 460 nm emission.

T1 sequence (P02550 whole entry): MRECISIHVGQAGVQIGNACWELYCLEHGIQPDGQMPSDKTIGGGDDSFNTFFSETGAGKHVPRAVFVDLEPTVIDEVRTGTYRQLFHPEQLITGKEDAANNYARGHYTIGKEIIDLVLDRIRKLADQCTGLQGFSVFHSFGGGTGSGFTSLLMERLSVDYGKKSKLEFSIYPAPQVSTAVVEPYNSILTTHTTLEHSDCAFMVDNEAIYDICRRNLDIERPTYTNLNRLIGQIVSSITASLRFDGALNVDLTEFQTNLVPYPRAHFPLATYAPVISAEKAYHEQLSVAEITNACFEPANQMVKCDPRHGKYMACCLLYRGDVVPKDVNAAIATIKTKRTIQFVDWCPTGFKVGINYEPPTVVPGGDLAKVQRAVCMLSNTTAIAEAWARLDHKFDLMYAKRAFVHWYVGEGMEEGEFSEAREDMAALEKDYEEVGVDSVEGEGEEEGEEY
T1 sequence (P02554 whole entry): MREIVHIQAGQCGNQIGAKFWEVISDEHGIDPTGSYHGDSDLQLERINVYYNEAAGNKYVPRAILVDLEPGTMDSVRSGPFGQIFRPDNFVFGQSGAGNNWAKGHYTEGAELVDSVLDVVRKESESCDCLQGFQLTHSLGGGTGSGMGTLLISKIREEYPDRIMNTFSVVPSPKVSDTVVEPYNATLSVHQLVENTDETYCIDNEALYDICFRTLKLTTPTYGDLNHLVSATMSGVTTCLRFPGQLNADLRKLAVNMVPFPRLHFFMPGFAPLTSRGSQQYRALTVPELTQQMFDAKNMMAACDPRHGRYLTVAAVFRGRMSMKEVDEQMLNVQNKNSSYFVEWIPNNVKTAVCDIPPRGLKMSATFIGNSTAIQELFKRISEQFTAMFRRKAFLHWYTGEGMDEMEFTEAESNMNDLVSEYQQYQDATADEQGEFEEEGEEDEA

| Structure (SMILES) | effect on tubulin polymerization |
| --- | --- |
| CC[C@]1(O)C[C@@H]2CN(CCc3c([nH]c4ccccc34)[C@@](C(=O)OC)(c3cc4c(cc3OC)N(C)[C@H]3[C@@](O)(C(=O)OC)[C@H](OC(C)=O)[C@]5(CC)C=CCN6CC[C@]43[C@@H]65)C2)C1 [vinblastine] | inhibited tubulin polymerization |
| O=C(CCCc1ccc(-c2ccccc2F)cc1)Nc1cccnc1 [WJA69b, 4-(2′-fluoro-[1,1′-biphenyl]-4-yl)-N-(pyridin-3-yl)butanamide] | inhibited tubulin polymerization |
| CC(=O)O[C@H]1C(=O)[C@@]2(C)[C@H]([C@H](OC(=O)c3ccccc3)[C@]3(O)C[C@H](OC(=O)[C@H](O)[C@@H](NC(=O)c4ccccc4)c4ccccc4)C(C)=C1C3(C)C)[C@]1(OC(C)=O)CO[C@@H]1C[C@@H]2O [paclitaxel] | enhanced tubulin polymerization |
| O=C(NCCCc1ccc(-c2ccccc2F)cc1)c1cccnc1 [WJA88, N-(3-(2′-Fluoro-[1,1′-Biphenyl]-4-yl)Propyl)Nicotinamide] | inhibited tubulin polymerization |
